Earlier results in US6718687B2 (priority 2002, dated 2004).

Test system: mosquitoes

SMILES: C=CC(O)CCCCC (centres unmarked) [Octenol, 1-octen-3-oL]
- results from traps baited with Octenol and CO2 compared with CO2 alone (Octenol and CO2 versus CO2 alone): not significant
- effectiveness as attractant for mosquitoes (Octenol at the release rate tested, unless CO2 was also used): not an effective attractant
